Test results as given in patent publication EP1025114B1, “3'-N-MODIFIED 6-O-SUBSTITUTED ERYTHROMYCIN KETOLIDE DERIVATIVES HAVING ANTIBACTERIAL ACTIVITY” (priority 1997, dated 1999).
≈ marks a conversion by molar mass, not a printed value.

Legend:
Test in all cases: In vitro antibacterial activity, agar dilution MIC
Assay type in all cases: cell-based
[1] = tested on: Staphylococcus aureus A-5278; conditions: Staphylococcus aureus A-5278 (organism code CC); BHI agar, 35-37 °C, 20 to 24 hours; unit assumed
Procedure: (§1) Representative compounds of the present invention were assayed in vitro for antibacterial activity as follows: Twelve petri dishes containing successive aqueous dilutions of the test compound mixed with 10 mL of sterilized Brain Heart infusion (BHI) agar (Difco 0418-01-5) were prepared. Each plate was inoculated with 1:100 (or 1:10 for slow-growing strains, such as Micrococcus and Streptococcus) dilutions of up to 32 different microorganisms, using a Steers replicator block. […] In addition, a control plate, using BHI agar containing no test compound, was prepared and incubated at the beginning and end of each test.
(§2) An additional plate containing a compound having known susceptibility patterns for the organisms being tested and belonging to the same antibiotic class as the test compound was also prepared and incubated as a further control, as well as to provide test-to-test comparability.
(§3) After incubation, each plate was visually inspected. The minimum inhibitory concentration (MIC) was defined as the lowest concentration of drug yielding no growth, a slight haze, or sparsely isolated colonies on the inoculum spot as compared to the growth control.

[2] = tested on: Nocardia Asteroides ATCC9970; conditions: Nocardia Asteroides ATCC9970 (organism code VV); BHI agar, 35-37 °C, 20 to 24 hours; unit assumed
Procedure: as §1, §2, §3

[3] = tested on: Streptococcus pyogenes EES61; conditions: Streptococcus pyogenes EES61 (organism code LL); BHI agar, 35-37 °C, 20 to 24 hours; unit assumed
Procedure: as §1, §2, §3

[4] = tested on: Escherichia coli JUHL; conditions: Escherichia coli JUHL (organism code QQ); BHI agar, 35-37 °C, 20 to 24 hours; unit assumed
Procedure: as §1, §2, §3

[5] = tested on: Staphylococcus aureus ATCC 6538P; conditions: Staphylococcus aureus ATCC 6538P (organism code AA); BHI agar, 35-37 °C, 20 to 24 hours; unit assumed
Procedure: as §1, §2, §3

[6] = tested on: Micrococcus luteus ATCC 9341; conditions: Micrococcus luteus ATCC 9341 (organism code OO); BHI agar, 35-37 °C, 20 to 24 hours; unit assumed
Procedure: as §1, §2, §3

[7] = tested on: Haemophilis Influenzae DILL AMP R; conditions: Haemophilis Influenzae DILL AMP R (organism code WW); BHI agar, 35-37 °C, 20 to 24 hours; unit assumed
Procedure: as §1, §2, §3

[8] = tested on: Staphylococcus epidermidis 3519; conditions: Staphylococcus epidermidis 3519 (organism code HH); BHI agar, 35-37 °C, 20 to 24 hours; unit assumed
Procedure: as §1, §2, §3

[9] = tested on: Staphylococcus aureus 1775; conditions: Staphylococcus aureus 1775 (organism code GG); BHI agar, 35-37 °C, 20 to 24 hours; unit assumed
Procedure: as §1, §2, §3

[10] = tested on: Escherichia coli DC-2; conditions: Escherichia coli DC-2 (organism code SS); BHI agar, 35-37 °C, 20 to 24 hours; unit assumed
Procedure: as §1, §2, §3

[11] = tested on: Mycobacterium smegmatis ATCC 114; conditions: Mycobacterium smegmatis ATCC 114 (organism code UU); BHI agar, 35-37 °C, 20 to 24 hours; unit assumed
Procedure: as §1, §2, §3

[12] = tested on: Escherichia coli SS; conditions: Escherichia coli SS (organism code RR); BHI agar, 35-37 °C, 20 to 24 hours; unit assumed
Procedure: as §1, §2, §3

[13] = tested on: Streptococcus Pheumoniae GYR 1171; conditions: Streptococcus Pheumoniae GYR 1171 (organism code YY); BHI agar, 35-37 °C, 20 to 24 hours; unit assumed
Procedure: as §1, §2, §3

[14] = tested on: Micrococcus luteus ATCC 4698; conditions: Micrococcus luteus ATCC 4698 (organism code PP); BHI agar, 35-37 °C, 20 to 24 hours; unit assumed
Procedure: as §1, §2, §3

[15] = tested on: Streptococcus Pheumoniae ATCC6303; conditions: Streptococcus Pheumoniae ATCC6303 (organism code XX); BHI agar, 35-37 °C, 20 to 24 hours; unit assumed
Procedure: as §1, §2, §3

[16] = tested on: Streptococcus Pheumoniae 5649; conditions: Streptococcus Pheumoniae 5649 (organism code ZZA); BHI agar, 35-37 °C, 20 to 24 hours; unit assumed
Procedure: as §1, §2, §3

[17] = tested on: Streptococcus agalactiae CMX 508; conditions: Streptococcus agalactiae CMX 508 (organism code KK); BHI agar, 35-37 °C, 20 to 24 hours; unit assumed
Procedure: as §1, §2, §3

[18] = tested on: Streptococcus pyogenes PIU 2548; conditions: Streptococcus pyogenes PIU 2548 (organism code NN); BHI agar, 35-37 °C, 20 to 24 hours; unit assumed
Procedure: as §1, §2, §3

[19] = tested on: Staphylococcus aureus CMX 553; conditions: Staphylococcus aureus CMX 553 (organism code FF); BHI agar, 35-37 °C, 20 to 24 hours; unit assumed
Procedure: as §1, §2, §3

[20] = tested on: Streptococcus pyogenes 930; conditions: Streptococcus pyogenes 930 (organism code MM); BHI agar, 35-37 °C, 20 to 24 hours; unit assumed
Procedure: as §1, §2, §3

[21] = tested on: Streptococcus bovis A-5169; conditions: Streptococcus bovis A-5169 (organism code JJ); BHI agar, 35-37 °C, 20 to 24 hours; unit assumed
Procedure: as §1, §2, §3

[22] = tested on: Staphylococcus aureus CMX 642A; conditions: Staphylococcus aureus CMX 642A (organism code DD); BHI agar, 35-37 °C, 20 to 24 hours; unit assumed
Procedure: as §1, §2, §3

[23] = tested on: Staphylococcus aureus A5177; conditions: Staphylococcus aureus A5177 (organism code BB); BHI agar, 35-37 °C, 20 to 24 hours; unit assumed
Procedure: as §1, §2, §3

[24] = tested on: Staphylococcus aureus NCTC10649M; conditions: Staphylococcus aureus NCTC10649M (organism code EE); BHI agar, 35-37 °C, 20 to 24 hours; unit assumed
Procedure: as §1, §2, §3

[25] = tested on: Candida albicans CCH 442; conditions: Candida albicans CCH 442 (organism code TT); BHI agar, 35-37 °C, 20 to 24 hours; unit assumed
Procedure: as §1, §2, §3

[26] = tested on: Enterococcus faecium ATCC 8043; conditions: Enterococcus faecium ATCC 8043 (organism code II); BHI agar, 35-37 °C, 20 to 24 hours; unit assumed
Procedure: as §1, §2, §3

[27] = tested on: Streptococcus Pheumoniae 5979; conditions: Streptococcus Pheumoniae 5979 (organism code ZZ); BHI agar, 35-37 °C, 20 to 24 hours; unit assumed
Procedure: as §1, §2, §3

Row | Compound | MIC [1] [µg/mL] | MIC [2] [µg/mL] | MIC [3] [µg/mL] | MIC [4] [µg/mL] | MIC [5] [µg/mL] | MIC [6] [µg/mL] | MIC [8] [µg/mL] | MIC [9] [µg/mL] | MIC [10] [µg/mL] | MIC [11] [µg/mL] | MIC [12] [µg/mL] | MIC [13] [µg/mL] | MIC [14] [µg/mL] | MIC [15] [µg/mL] | MIC [16] [µg/mL] | MIC [17] [µg/mL] | MIC [18] [µg/mL] | MIC [19] [µg/mL] | MIC [20] [µg/mL] | MIC [21] [µg/mL] | also measured
1 | CC[C@H]1OC(=O)[C@H](C)[C@@H](O[C@H]2C[C@@](C)(OC)[C@@H](O)[C@H](C)O2)[C@H](C)[C@@H](O[C@@H]2O[C@H](C)C[C@H](N(C)C)[C@H]2O)[C@](C)(O)C[C@@H](C)C(=O)[C@H](C)[C@@H](O)[C@]1(C)O [Ery. A, Erythromycin A, reference compound] | > 100 | 0.1 (≈ 0.136 µM) | 0.05 (≈ 0.0681 µM) | > 100 | 0.2 (≈ 0.273 µM) | 0.05 (≈ 0.0681 µM) | 0.39 (≈ 0.531 µM) | > 100 | > 100 | 3.1 (≈ 4.22 µM) | 0.78 (≈ 1.06 µM) | 0.06 (≈ 0.0818 µM) | 0.2 (≈ 0.273 µM) | 0.06 (≈ 0.0818 µM) | 16 (≈ 21.8 µM) | 0.05 (≈ 0.0681 µM) | 6.2 (≈ 8.45 µM) | 0.39 (≈ 0.531 µM) | > 100 | 0.02 (≈ 0.0273 µM) | MIC [7]: 4 µg/mL (≈ 5.45 µM); MIC [22]: 0.39 µg/mL (≈ 0.531 µM); MIC [23]: 3.1 µg/mL (≈ 4.22 µM); MIC [24]: 0.39 µg/mL (≈ 0.531 µM); MIC [25]: > 100 µg/mL; MIC [26]: 0.05 µg/mL (≈ 0.0681 µM)
2 | C#CCN(C)[C@H]1C[C@@H](C)O[C@@H](O[C@@H]2[C@@H](C)C(=O)[C@@H](C)C(=O)O[C@H](CC)[C@@]3(C)OC(=O)N[C@@H]3[C@@H](C)C(=O)[C@H](C)C[C@@]2(C)OCC=Cc2cnc3ccccc3c2)[C@@H]1O [Example 10, Compound of Formula (II); R is -CH2CH=CH-(3-quinolyl), R^p is H, W is absent, R^w is H, R^1 is CH2-C≡CH, R^2 is CH3-] | > 100 | 0.2 | 0.01 | > 100 | 0.2 | 0.1 | 0.2 | > 100 | > 100 | 1.56 | 1.56 | 0.03 | 0.39 | 0.03 | 0.25 | 0.01 | 0.39 | 0.2 | 6.2 | 0.02 | MIC [27]: 32 µg/mL; MIC [22]: 0.2 µg/mL; MIC [23]: 0.39 µg/mL; MIC [24]: 0.1 µg/mL; MIC [25]: > 100 µg/mL; MIC [26]: 0.05 µg/mL
3 | CC[C@H]1OC(=O)[C@H](C)C(=O)[C@H](C)[C@@H](O[C@@H]2O[C@H](C)C[C@H](N(C)C3CC3)[C@H]2O)[C@](C)(OCC=Cc2cnc3ccccc3c2)C[C@@H](C)C(=O)[C@H](C)[C@H]2NC(=O)O[C@@]21C [Example 13, Compound of Formula (II); R is -CH2CH=CH-(3-quinolyl), R^p is H, W is absent, R^w is H, R^1 is cyclopropyl, R^2 is CH3] | > 100 | 3.1 | 0.1 | > 100 | 1.56 | 0.39 | 3.1 | > 100 | > 100 | 3.1 | 3.1 | 0.03 | 0.78 | 0.03 | 0.25 | 0.2 | 0.39 | 1.56 | > 100 | 0.2 | MIC [27]: 16 µg/mL; MIC [22]: 1.56 µg/mL; MIC [23]: 3.1 µg/mL; MIC [24]: 3.1 µg/mL; MIC [25]: 50 µg/mL; MIC [26]: 0.39 µg/mL
4 | CC[C@H]1OC(=O)[C@H](C)C(=O)[C@H](C)[C@@H](O[C@@H]2O[C@H](C)C[C@H](N(C)Cc3cccnc3)[C@H]2O)[C@](C)(OCC=Cc2cnc3ccccc3c2)C[C@@H](C)C(=O)[C@H](C)[C@H]2NC(=O)O[C@@]21C [Example 21, Compound of Formula (II); R is -CH2CH=CH-(3-quinolyl), R^p is H, W is absent, R^w is H, R^1 is CH2-(3-pyridyl), R^2 is CH3] |  |  |  |  |  |  |  |  |  |  |  |  |  |  |  |  |  |  |  |  | MIC [7]: 4 µg/mL
5 | CC[C@H]1OC(=O)[C@H](C)C(=O)[C@H](C)[C@@H](O[C@@H]2O[C@H](C)C[C@H](N(C)Cc3cccc(O)c3)[C@H]2O)[C@](C)(OCC=Cc2cnc3ccccc3c2)C[C@@H](C)C(=O)[C@H](C)[C@H]2NC(=O)O[C@@]21C [Example 22, Compound of Formula (II); R is -CH2CH=CH-(3-quinolyl), R^p is H, W is absent, R^w is H, R^1 is CH2-(3-hydroxyphenyl), R^2 is CH3] | > 100 | 0.2 | 0.1 | > 100 | 0.2 | 0.1 | 0.39 | > 100 | > 100 | 0.78 | 0.39 | 0.03 | 0.1 | 0.03 | 0.25 | 0.1 | 0.1 | 0.39 | 3.1 | 0.1 | MIC [7]: 4 µg/mL; MIC [22]: 0.39 µg/mL; MIC [23]: 0.39 µg/mL; MIC [24]: 0.39 µg/mL; MIC [25]: > 100 µg/mL; MIC [26]: 0.1 µg/mL
